The values that follow are results of earlier work, collected in PubChem BioAssay AID1259409 (Chemical Carcinogenesis Research Information System (CCRIS), 2018).

Molecules are shown by their SMILES. Several values for one entry are separate records, joined by “and”; a condition that tells them apart may be missing. Equal values may be shown once.

This data set has as its system rodent chemically induced tumor inhibition, incidence and multiplicity. The data set can be described thus: CCRIS tumor inhibitor studies. To be noted: Route [Inhibitor]: ORAL.

Take `[Se]`: the “tumour outcome (control, treated, inhibition, significance)” value (Carcinogen: 1,2-DIMETHYLHYDRAZINE, 540-73-8, Dose [Inhibitor]: 0, 0.2, 5 PPM IN DIET BEGINNING 1 D PRIOR TO CARCINOGEN TREATMENT AND CONTINUING FOR DURATION OF STUDY (STUDY DURATION:, Dose [Inhibitor]: 0, 0.2, 5 PPM IN DIET BEGINNING 1 D PRIOR TO CARCINOGEN TREATMENT AND CONTINUING FOR DURATION OF STUDY (STUDY DURATION:, Species: RAT, Strain/Sex: SPRAGUE-DAWLEY/MALE, Target Tissue: Type of Lesion: DISTAL COLON: ADENOCARCINOMA, Dose [Carcinogen]: 20 MG/KG 1/WK FOR 20 WK, Promoter: NONE USED) is listed as 94%, 81%, 14%, not significant; the “tumour outcome (control, treated, inhibition, significance)” value (Carcinogen: 3,2'-DIMETHYL-4-AMINOBIPHENYL, 13394-86-0, Dose [Inhibitor]: 0, 2 PPM IN BASAL DIET BEGINNING POST CARCINOGEN TREATMENT AND CONTINUING FOR 40 WK (STUDY DURATION: 60 WK), Species: RAT, Strain/Sex: F344/MALE, Target Tissue: Type of Lesion: LARGE INTESTINE: ADENOMA AND CARCINOMA, Dose [Carcinogen]: 50 MG/KG 1/2 WK FOR 20 WK TO RATS MAINTAINED ON ETHINYL ESTRADIOL CONTAINING DIET (0.75 PPM) FOR 1 WK CYCLED WITH ETHINY, Promoter: ETHINYL ESTRADIOL, 57-63-6) is 3/10 (30%), 0/11 (0%), 100%, not significant; the “tumour outcome (control, treated, inhibition, significance)” value (Carcinogen: 3,2'-DIMETHYL-4-AMINOBIPHENYL, 13394-86-0, Dose [Inhibitor]: 0, 2 PPM IN BASAL DIET BEGINNING POST CARCINOGEN TREATMENT AND CONTINUING FOR 40 WK (STUDY DURATION: 60 WK), Species: RAT, Strain/Sex: F344/MALE, Target Tissue: Type of Lesion: PANCREAS: ACINAR CELL NODULE, Dose [Carcinogen]: 50 MG/KG 1/2 WK FOR 20 WK TO RATS MAINTAINED ON ETHINYL ESTRADIOL CONTAINING DIET (0.75 PPM) FOR 1 WK CYCLED WITH ETHINY, Promoter: ETHINYL ESTRADIOL, 57-63-6) is 4/10 (40%), 4/11 (36%), 10%, not significant; the “tumour outcome (control, treated, inhibition, significance)” value (Carcinogen: 3,2'-DIMETHYL-4-AMINOBIPHENYL, 13394-86-0, Dose [Inhibitor]: 0, 2 PPM IN BASAL DIET BEGINNING POST CARCINOGEN TREATMENT AND CONTINUING FOR 40 WK (STUDY DURATION: 60 WK), Species: RAT, Strain/Sex: F344/MALE, Target Tissue: Type of Lesion: PREPUTIAL GLAND: ADENOMA AND CARCINOMA, Dose [Carcinogen]: 50 MG/KG 1/2 WK FOR 20 WK TO RATS MAINTAINED ON ETHINYL ESTRADIOL CONTAINING DIET (0.75 PPM) FOR 1 WK CYCLED WITH ETHINY, Promoter: ETHINYL ESTRADIOL, 57-63-6) is given as 5/10 (50%), 6/11 (55%), -10%, not significant; the “tumour outcome (control, treated, inhibition, significance)” value (Carcinogen: 3,2'-DIMETHYL-4-AMINOBIPHENYL, 13394-86-0, Dose [Inhibitor]: 0, 2 PPM IN BASAL DIET BEGINNING POST CARCINOGEN TREATMENT AND CONTINUING FOR 40 WK (STUDY DURATION: 60 WK), Species: RAT, Strain/Sex: F344/MALE, Target Tissue: Type of Lesion: SMALL INTESTINE: ADENOMA AND ADENOCARCINOMA, Dose [Carcinogen]: 50 MG/KG 1/2 WK FOR 20 WK TO RATS MAINTAINED ON ETHINYL ESTRADIOL CONTAINING DIET (0.75 PPM) FOR 1 WK CYCLED WITH ETHINY, Promoter: ETHINYL ESTRADIOL, 57-63-6) is 2/10 (20%), 2/11 (18%), 10%, not significant; the “tumour outcome (control, treated, inhibition, significance)” value (Carcinogen: 3,2'-DIMETHYL-4-AMINOBIPHENYL, 13394-86-0, Dose [Inhibitor]: 0, 2 PPM IN BASAL DIET BEGINNING POST CARCINOGEN TREATMENT AND CONTINUING FOR 40 WK (STUDY DURATION: 60 WK), Species: RAT, Strain/Sex: F344/MALE, Target Tissue: Type of Lesion: SUBCUTIS: TUMOR, Dose [Carcinogen]: 50 MG/KG 1/2 WK FOR 20 WK TO RATS MAINTAINED ON ETHINYL ESTRADIOL CONTAINING DIET (0.75 PPM) FOR 1 WK CYCLED WITH ETHINY, Promoter: ETHINYL ESTRADIOL, 57-63-6) is listed as 1/10 (10%), 0/11 (0%), 100%, not significant. The “tumour outcome (control, treated, inhibition, significance)” value runs as follows: (Carcinogen: 3,2'-DIMETHYL-4-AMINOBIPHENYL, 13394-86-0, Dose [Inhibitor]: 0, 2 PPM IN BASAL DIET BEGINNING POST CARCINOGEN TREATMENT AND CONTINUING FOR 40 WK (STUDY DURATION: 60 WK), Species: RAT, Strain/Sex: F344/MALE, Target Tissue: Type of Lesion: ZYMBAL GLAND: ADENOMA AND CARCINOMA, Dose [Carcinogen]: 50 MG/KG 1/2 WK FOR 20 WK TO RATS MAINTAINED ON ETHINYL ESTRADIOL CONTAINING DIET (0.75 PPM) FOR 1 WK CYCLED WITH ETHINY, Promoter: ETHINYL ESTRADIOL, 57-63-6) 2/10 (20%), 2/11 (18%), 10%, not significant; (Carcinogen: 3,2-DIMETHYL-4-AMINOBIPHENYL, 13394-86-0, Dose [Inhibitor]: 0, 2 PPM IN BASAL DIET BEGINNING POST CARCINOGEN TREATMENT AND CONTINUING FOR 40 WK (STUDY DURATION: 60 WK), Species: RAT, Strain/Sex: F344/MALE, Target Tissue: Type of Lesion: PROSTATE: CARCINOMA, Dose [Carcinogen]: 50 MG/KG 1/2 WK FOR 20 WK TO RATS MAINTAINED ON ETHINYL ESTRADIOL CONTAINING DIET (0.75 PPM) FOR 1 WK CYCLED WITH ETHINY, Promoter: ETHINYL ESTRADIOL, 57-63-6) 5/10 (50%), 4/11 (36%), 28%, not significant; (Carcinogen: DINITROSOPIPERAZINE, 140-79-4, Dose [Inhibitor]: 0, 2 UG/G DIET IN YEAST CONCURRENTLY WITH CARCINOGEN AND CONTINUED FOR STUDY DURATION (STUDY DURATION: 13.5 MO), Species: RAT, Strain/Sex: CD-1/MALE, FEMALE, Target Tissue: Type of Lesion: NASAL PHARYNX: CARCINOMA, Dose [Carcinogen]: 1.5 MG IN WATER 2/WK FOR 5 WK FOLLOWED BY 3 MG IN WATER 2/WK FOR 17.5 WK (TOTAL DOSE: 120 MG)) 5/31(16%), 1/22(5%), 69%, p 0.025; (Carcinogen: NONE USED, Dose [Inhibitor]: 0.5 PPM IN DRINKING WATER DAILY FOR DURATION OF STUDY (STUDY DURATION: 2 YR), Species: MOUSE, Strain/Sex: C3H/FEMALE, Target Tissue: Type of Lesion: MAMMARY GLAND: ADENOCARCINOMA, Promoter: NONE USED) 64%, 25%, 61%, p<0.01; (Carcinogen: NONE USED, Dose [Inhibitor]: 2 PPM IN A 10% BUTTER DIET DAILY FOR DURATION OF STUDY (STUDY DURATION: 2 YR), Species: MOUSE, Strain/Sex: C3H/FEMALE, Target Tissue: Type of Lesion: MAMMARY GLAND: ADENOCARCINOMA, Promoter: NONE USED) 65%, 72%, -11%, not significant; (Carcinogen: NONE USED, Dose [Inhibitor]: 2 PPM IN A 10% CORN OIL DIET DAILY FOR DURATION OF STUDY (STUDY DURATION: 2 Y R), Species: MOUSE, Strain/Sex: C3H/FEMALE, Target Tissue: Type of Lesion: MAMMARY GLAND: ADENOCARCINOMA, Promoter: NONE USED) 70%, 72%, -3%, not significant. Moreover, the “tumour outcome (control, treated, inhibition, significance)” value runs as follows: (Carcinogen: NONE USED, Dose [Inhibitor]: 2 PPM IN A 10% LARD DIET DAILY FOR DURATION OF STUDY (STUDY DURATION: 2 YR), Species: MOUSE, Strain/Sex: C3H/FEMALE, Target Tissue: Type of Lesion: MAMMARY GLAND: ADENOCARCINOMA, Promoter: NONE USED) 53%, 52%, 2%, not significant; (Carcinogen: NONE USED, Dose [Inhibitor]: 2 PPM IN A 10% RAPE SEED OIL DIET DAILY FOR DURATION OF STUDY (STUDY DURATION : 2 YR), Species: MOUSE, Strain/Sex: C3H/FEMALE, Target Tissue: Type of Lesion: MAMMARY GLAND: ADENOCARCINOMA, Promoter: NONE USED) 63%, 65%, -3%, not significant; (Carcinogen: NONE USED, Dose [Inhibitor]: 2 PPM IN DRINKING WATER DAILY FOR DURATION OF STUDY (STUDY DURATION: 2 YR), Species: MOUSE, Strain/Sex: C3H/FEMALE, Target Tissue: Type of Lesion: MAMMARY GLAND: ADENOCARCINOMA, Promoter: NONE USED) 44%, 40%, 9%, not calculated and 64%, 25%, 61%, p<0.01.
For the compound `C=C1C[C@H]2[C@@H]3C=C(C)C4=CC(=O)CC[C@]4(C)[C@H]3CC[C@]2(C)[C@@]1(OC(C)=O)C(C)=O`, the “tumour outcome (control, treated, inhibition, significance)” value is given as 17/20 (85%), 0/20 (0%), 100%, not calculated (Carcinogen: NONE USED, Dose [Inhibitor]: 0, 0.1 MG/D IN DIET FOR THE DURATION OF STUDY (STUDY DURATION: LIFESPAN), Species: RAT, Strain/Sex: BDII/FEMALE, Target Tissue: Type of Lesion: UTERUS: ENDOMETRIAL CARCINOMA, Promoter: NONE USED); 17/20 (85%), 0/19 (0%), 100%, not calculated (Carcinogen: NONE USED, Dose [Inhibitor]: 0, 0.2 MG/D IN DIET FOR THE DURATION OF STUDY (STUDY DURATION: LIFESPAN), Species: RAT, Strain/Sex: BDII/FEMALE, Target Tissue: Type of Lesion: UTERUS: ENDOMETRIAL CARCINOMA, Promoter: NONE USED); 17/20 (85%), 0/17 (0%), 100%, not calculated (Carcinogen: NONE USED, Dose [Inhibitor]: 0, 0.4 MG/D IN DIET FOR THE DURATION OF STUDY (STUDY DURATION: LIFESPAN), Species: RAT, Strain/Sex: BDII/FEMALE, Target Tissue: Type of Lesion: UTERUS: ENDOMETRIAL CARCINOMA, Promoter: NONE USED).
